Source: patent US20140303092A1 (CHIMERIX, INC., priority 2011, published 2014)

Test: Study HDP-CDV-201: safety and tolerability (adverse events, laboratory abnormalities, discontinuations)
Format: in vivo, human (adult allogeneic HSCT recipients)
Settings: Cohort 4A
Method: Clinical Studies of HDP-CDV were performed and described in detail in the following Examples. For example, HDP-CDV-201 is a placebo-controlled, dose-escalating trial in HSCT CMV (R+) recipients, evaluating the ability of HDP-CDV to prevent or control CMV infection was carried out. Five cohorts were established in which participants or subjects received either placebo or the HDP-CDV orally, in doses ranging from 40 mg weekly (QW) to 200 mg twice weekly (BIW). Subjects who were post-HSCT were enrolled at the time of engraftment and randomized to HDP-CDV or placebo (3 to 1 ratio) and received blinded therapy until approximately 100 day post-transplantation. HDP-CDV doses were 40 mg QW, 100 mg QW, 200 mg QW, 200 mg BIW and 100 mg BIW. Escalation to the next dose was decided by the data monitoring committee after review of the safety data from the previous Cohort. Subjects who developed CMV disease or CMV infection requiring pre-emptive therapy with local standard of care were discontinued from blinded therapy and followed for 4 weeks. Subjects who completed treatment with blinded therapy were followed for 8 weeks post-therapy.
Data from Study HDP-CDV-201 also provided characterization of the safety and tolerability profile of HDP-CDV when administered for the prevention or control of CMV infection in high risk (R^+) post-HSCT adult subjects.
The Safety population (SAFETY) included all randomized subjects who took at least one dose of study treatment. This population was used to summarize safety outcomes based on the treatment actually received, in cases where a subject was treated contrary to the randomization schedule.
The safety and tolerability profile of HDP-CDV, including subject demographics and Baseline characteristics; the AE profile; and laboratory abnormalities of interest were analyzed in the cohorts followed in this investigation.
Subjects completing the treatment period received a full course of study medication; those completing the entire study attended visits through 8 weeks of follow up. Subjects who discontinued treatment may have done so for protocol specified reasons (e.g. development of clinically significant CMV infection requiring preemptive treatment with excluded anti-CMV medications) or for other reasons (e.g., withdrawal, adverse events, loss to follow-up). The disposition of subjects in Study HDP-CDV-201 during the double-blind, placebo-controlled treatment period (through Week 11) is listed by dosing Cohort in TABLE 23.
Adverse events were examined by severity to ensure that all safety signals were identified in this study population. Because of the frequency of events in HSCT recipients, particular attention was given to evaluation of Grade 3 […], 4 (severe), and 5 (fatal) adverse events.
Only those preferred terms for which at least one Grade 3 or higher event was experienced in any treatment group are listed. Cytomegalovirus-related AEs are excluded from this analysis.
HDP-CDV is a lipid conjugate of CDV. Because CDV is known to have adverse effects on renal function and bone marrow, decreased GFR and persistent neutropenia were identified as AEs of special interest. Key renal and hematological (TABLE 30) laboratory parameters were measured and listed below by Study HDP-CDV-201 treatment groups. TABLE 30 includes abnormal levels of serum creatinine, neutrophils, platelets, WBCs, and hemoglobin and includes data at Screening and during the treatment period.
A common metric for unit based dosing of medications is by weight (mg/kg). When the distribution of weights was examined for all subjects participating in the study, the median was 78 kg and the lower 25th percentile weight was approximately 65 kg, which translates to a cut-off of ˜3 mg/kg for a 200 mg total weekly dose. Based upon this approach, a cut-off of 3 mg/kg was used to assess the frequency of diarrhea and associated GI AEs reported for the subjects in Cohorts 3 or 4a (TABLE 40).

SMILES: CCCCCCCCCCCCCCCCOCCCOP(=O)(O)COC(CO)Cn1ccc(N)nc1=O (stereo not drawn) [HDP-CDV]
- Intensity of Gastrointestinal AEs, Grade 1, subjects (100 mg BIW): 12 (24.0%)
- Intensity of Gastrointestinal AEs, Grade 2, subjects (100 mg BIW): 17 (34.0%)
- Intensity of Gastrointestinal AEs, Grade 3, subjects (100 mg BIW): 10 (20.0%)
- Intensity of Gastrointestinal AEs, Grade 4, subjects (100 mg BIW): 1 (2.0%)
- Intensity of Gastrointestinal AEs, Grade 5, subjects (100 mg BIW): 0
- Serum ALT level, Median fold increase from Baseline at Follow-up Week 1 (100 mg BIW): 1.52 fold
- Serum ALT level, Median fold increase from Baseline at Follow-up Week 4 (100 mg BIW): 1.11 fold
- Serum ALT level, Peak Median fold increase from Baseline (100 mg BIW): 2.86 fold
- Subjects completed study (100 mg BIW): 25 (50.0%) n (%)
- TEAE Abdominal pain Grade 2, subjects (100 mg BIW): 1 (2.0%)
- TEAE Abdominal pain Grade 3, subjects (100 mg BIW): 1 (2.0%)
- TEAE Abdominal pain Grade 4, subjects (100 mg BIW): 0
- TEAE Abdominal pain Grade 5, subjects (100 mg BIW): 0
- TEAE Abdominal pain Overall Frequency, subjects (100 mg BIW): 13 (26.0%)
- TEAE Diarrhea Grade 2, subjects (100 mg BIW): 6 (12.0%)
- TEAE Diarrhea Grade 3, subjects (100 mg BIW): 9 (18.0%)
- TEAE Diarrhea Grade 4, subjects (100 mg BIW): 0
- TEAE Diarrhea Grade 5, subjects (100 mg BIW): 0
- TEAE Diarrhea Overall Frequency, subjects (100 mg BIW): 26 (52.0%)
- TEAE Hypokalaemia Grade 2, subjects (100 mg BIW): 2 (4.0%)
- TEAE Hypokalaemia Grade 3, subjects (100 mg BIW): 2 (4.0%)
- TEAE Hypokalaemia Grade 4, subjects (100 mg BIW): 0
- TEAE Hypokalaemia Grade 5, subjects (100 mg BIW): 0
- TEAE Hypokalaemia, subjects (100 mg BIW): 8 (16.0%)
- TEAE Nausea Grade 2, subjects (100 mg BIW): 9 (18.0%)
- TEAE Nausea Grade 3, subjects (100 mg BIW): 2 (4.0%)
- TEAE Nausea Grade 4, subjects (100 mg BIW): 0
- TEAE Nausea Grade 5, subjects (100 mg BIW): 0
- TEAE Nausea Overall Frequency, subjects (100 mg BIW): 17 (34.0%)
- TEAE Vomiting Grade 2, subjects (100 mg BIW): 8 (16.0%)
- TEAE Vomiting Grade 3, subjects (100 mg BIW): 2 (4.0%)
- TEAE Vomiting Grade 4, subjects (100 mg BIW): 0
- TEAE Vomiting Grade 5, subjects (100 mg BIW): 0
- TEAE Vomiting Overall Frequency, subjects (100 mg BIW): 22 (44.0%)
- Total Bilirubin (Screening) >1-[…] ULN, subjects (100 mg BIW): 3 (6.5%)
- Total Bilirubin (Screening) >1.5-3 × ULN, subjects (100 mg BIW): 2 (4.3%)
- Total Bilirubin (Screening) >3-10 × ULN, subjects (100 mg BIW): 0
- Total Bilirubin (Screening) >10 × ULN, subjects (100 mg BIW): 0
- Total Bilirubin (any time during therapy) >1-[…] ULN, subjects (100 mg BIW): 5 (10.0%)
- Total Bilirubin (any time during therapy) >1.5-3 × ULN, subjects (100 mg BIW): 3 (6.0%)
- Total Bilirubin (any time during therapy) >3-10 × ULN, subjects (100 mg BIW): 1 (2.0%)
- Total Bilirubin (any time during therapy) >10 × ULN, subjects (100 mg BIW): 0
- excess of subjects with severe diarrhea as compared to placebo (100 mg BIW): 13%
- incidence of diarrhea (100 mg BIW): 52%
- TEAE Abdominal pain Grade 2, subjects (100 mg BIW >3 mg/k): 0
- TEAE Abdominal pain Grade 3, subjects (100 mg BIW >3 mg/k): 0
- TEAE Abdominal pain Grade 4, subjects (100 mg BIW >3 mg/k): 0
- TEAE Abdominal pain Grade 5, subjects (100 mg BIW >3 mg/k): 0
- TEAE Abdominal pain Overall Frequency, subjects (100 mg BIW >3 mg/k): 4 (40%)
- TEAE Diarrhea Grade 2, subjects (100 mg BIW >3 mg/k): 3 (30%)
- TEAE Diarrhea Grade 3, subjects (100 mg BIW >3 mg/k): 3 (30%)
- TEAE Diarrhea Grade 4, subjects (100 mg BIW >3 mg/k): 0
- TEAE Diarrhea Grade 5, subjects (100 mg BIW >3 mg/k): 0
- TEAE Diarrhea Overall Frequency, subjects (100 mg BIW >3 mg/k): 6 (60%)
- TEAE Hypokalaemia Grade 2, subjects (100 mg BIW >3 mg/k): 1 (10%)
- TEAE Hypokalaemia Grade 3, subjects (100 mg BIW >3 mg/k): 2 (20.0%)
- TEAE Hypokalaemia Grade 4, subjects (100 mg BIW >3 mg/k): 0
- TEAE Hypokalaemia Grade 5, subjects (100 mg BIW >3 mg/k): 0
- TEAE Hypokalaemia, subjects (100 mg BIW >3 mg/k): 3 (30%)
- TEAE Nausea Grade 2, subjects (100 mg BIW >3 mg/k): 3 (30%)
- TEAE Nausea Grade 3, subjects (100 mg BIW >3 mg/k): 1 (10%)
- TEAE Nausea Grade 4, subjects (100 mg BIW >3 mg/k): 0
- TEAE Nausea Grade 5, subjects (100 mg BIW >3 mg/k): 0
- TEAE Nausea Overall Frequency, subjects (100 mg BIW >3 mg/k): 4 (40%)
- TEAE Vomiting Grade 2, subjects (100 mg BIW >3 mg/k): 4 (40.0%)
- TEAE Vomiting Grade 3, subjects (100 mg BIW >3 mg/k): 1 (10.0%)
- TEAE Vomiting Grade 4, subjects (100 mg BIW >3 mg/k): 0
- TEAE Vomiting Grade 5, subjects (100 mg BIW >3 mg/k): 0
- TEAE Vomiting Overall Frequency, subjects (100 mg BIW >3 mg/k): 6 (60%)
- TEAE Abdominal pain Grade 2, subjects (100 mg BIW ≦3 mg/kg): 1 (2.5%)
- TEAE Abdominal pain Grade 3, subjects (100 mg BIW ≦3 mg/kg): 1 (2.5%)
- TEAE Abdominal pain Grade 4, subjects (100 mg BIW ≦3 mg/kg): 0
- TEAE Abdominal pain Grade 5, subjects (100 mg BIW ≦3 mg/kg): 0
- TEAE Abdominal pain Overall Frequency, subjects (100 mg BIW ≦3 mg/kg): 9 (22.5%)
- TEAE Diarrhea Grade 2, subjects (100 mg BIW ≦3 mg/kg): 3 (7.5%)
- TEAE Diarrhea Grade 3, subjects (100 mg BIW ≦3 mg/kg): 6 (15%)
- TEAE Diarrhea Grade 4, subjects (100 mg BIW ≦3 mg/kg): 0
- TEAE Diarrhea Grade 5, subjects (100 mg BIW ≦3 mg/kg): 0
- TEAE Diarrhea Overall Frequency, subjects (100 mg BIW ≦3 mg/kg): 20 (50%)^
- TEAE Hypokalaemia Grade 2, subjects (100 mg BIW ≦3 mg/kg): 1 (2.5%)
- TEAE Hypokalaemia Grade 3, subjects (100 mg BIW ≦3 mg/kg): 0
- TEAE Hypokalaemia Grade 4, subjects (100 mg BIW ≦3 mg/kg): 0
- TEAE Hypokalaemia Grade 5, subjects (100 mg BIW ≦3 mg/kg): 0
- TEAE Hypokalaemia, subjects (100 mg BIW ≦3 mg/kg): 5 (12.5%)
- TEAE Nausea Grade 2, subjects (100 mg BIW ≦3 mg/kg): 6 (15%)
- TEAE Nausea Grade 3, subjects (100 mg BIW ≦3 mg/kg): 1 (2.5%)
- TEAE Nausea Grade 4, subjects (100 mg BIW ≦3 mg/kg): 0
- TEAE Nausea Grade 5, subjects (100 mg BIW ≦3 mg/kg): 0
- TEAE Nausea Overall Frequency, subjects (100 mg BIW ≦3 mg/kg): 13 (32.5%)
- TEAE Vomiting Grade 2, subjects (100 mg BIW ≦3 mg/kg): 4 (10%)
- TEAE Vomiting Grade 3, subjects (100 mg BIW ≦3 mg/kg): 1 (2.5%)
- TEAE Vomiting Grade 4, subjects (100 mg BIW ≦3 mg/kg): 0
- TEAE Vomiting Grade 5, subjects (100 mg BIW ≦3 mg/kg): 0
- TEAE Vomiting Overall Frequency, subjects (100 mg BIW ≦3 mg/kg): 16 (40%)^
- Abdominal pain leading to study drug withdrawal (100 mg BIW, N = 50): 1 (2.0%)
- All AEs leading to withdrawal (100 mg BIW, N = 50): 18 (36.0%)
- Diarrhoea leading to study drug withdrawal (100 mg BIW, N = 50): 2 (4.0%)
- Dyspepsia leading to study drug withdrawal (100 mg BIW, N = 50): 0%
- Nausea leading to study drug withdrawal (100 mg BIW, N = 50): 1 (2.0%)
- TEAE ALT increased (100 mg BIW, N = 50): 9 (18.0%) n (%)
- TEAE AST increased (100 mg BIW, N = 50): 5 (10.0%) n (%)
- TEAE Abdominal pain (100 mg BIW, N = 50): 13 (26.0%) n (%)
- TEAE Abdominal pain, Upper (100 mg BIW, N = 50): 2 (4.0%) n (%)
- TEAE Acute GVHD (100 mg BIW, N = 50): 32 (64.0%) n (%)
- TEAE Acute Myeloid Leukemia recurrent (100 mg BIW, N = 50): 3 (6.0%) n (%)
- TEAE Acute Renal Failure (100 mg BIW, N = 50): 1 (2.0%) n (%)
- TEAE Anxiety (100 mg BIW, N = 50): 3 (6.0%) n (%)
- TEAE Arthralgias (100 mg BIW, N = 50): 3 (6.0%) n (%)
- TEAE Back Pain (100 mg BIW, N = 50): 4 (8.0%) n (%)
- TEAE Blood lactate dehydrogenase increased (100 mg BIW, N = 50): 4 (8.0%) n (%)
- TEAE Creatinine increased (100 mg BIW, N = 50): 7 (14.0%) n (%)
